# In patent US8513161B2, “Enhancement of plant growth” (Valent Biosciences Corporation, priority 2007, dated 2013):
# Structures can show the parent of a compound that is named as a salt.
# Legend:
# [1] = tested on: sorghum; assay: Field study, seed treatment of sorghum; type: in vivo; details: for root dry weight of a sample of 10 sorghum plants: 73 days after planting, control 148.5
# Procedure: (§1) For the field studies, the seed was treated with a seed treatment formulation containing clothianidin. The rate of clothianidin was dependent on the crop species. The seed treatment formulations were amended with the appropriate concentrations of either PESA or the sodium salt of PESA. Crops were planted and grown under standard agricultural practices, and evaluated at the times indicated. The sodium salt of PESA was prepared as described above, and was used in seed treatment either alone or in the presence of clothianidin. Sorghum seed was treated with 0 or 200 grams of clothianidin/100 kg (220 pound) of seed and with 0, 22, 55, or 137.5 grams PESA salt/100 kg seed.
# [2] = tested on: canola; assay: Field study, seed treatment of canola; type: in vivo, Brassica napus; details: for vigor rating (1 = low and 5 = high) of canola plants: 19 days after planting, control 3.8
# Procedure: as §1, with “Canola (Brassica napus)” for “Sorghum”, “400” for “200”
# [3] = tested on: maize; assay: Field study, seed treatment of maize; type: in vivo, Zea mays; details: 27 days after planting, control 3.6
# Procedure: For the field studies, the seed was treated with a seed treatment formulation containing clothianidin. The rate of clothianidin was dependent on the crop species. The seed treatment formulations were amended with the appropriate concentrations of either PESA or the sodium salt of PESA. Crops were planted and grown under standard agricultural practices, and evaluated at the times indicated. The PESA or the sodium salt of PESA was prepared as described above, and was used in seed treatment either alone or in the presence of clothianidin. Maize (Zea mays) seed was treated with 0 or 0.25 milligrams of clothianidin/seed and with 0, 22, 55, or 137.5 grams PESA salt/100 kg seed.
# [4] = tested on: cotton; assay: Continuous exposure pouch study, PESA salt and imidacloprid on cotton; type: in vivo; details: for shoot length of cotton / root length of cotton: in pouch; for shoot length of cotton: control 6.2; for root length of cotton: control 13.3
# Procedure: Seeds were placed in germination pouches consisting of germination paper hydrated with sterile water that was an insert in a gas-permeable 16×14 cm plastic pouch (CYG Pouch; Mega International, St. Paul, Minn.). In these examples, in pouch solution evaluation, clothianidin and PESA sodium salt were added to the sterile water in the pouch. Alternatively, imidacloprid or dinotefuran and PESA sodium salt were added to the sterile water in the pouch. The pouches were arranged in a completely randomized block design in growth racks and placed in 19-liter polycarbonate food storage containers (Rubbermaid Commercial Products, Winchester, Va.). The sealed containers were held in an upright growth cabinet maintained at 25 C with a 12 hour light: 12 hour dark photoperiod. After 6 days, the containers were removed from the growth cabinet, and the lengths of the roots and shoot were measured. […] Root lengths of the control and combination treatment of imidacloprid with 100 mg/liter PESA salt were similar.
# [5] = tested on: cotton; assay: Pouch assay of cotton after PESA salt and clothianidin seed treatments; type: in vivo; details: seed treatment; for shoot length of cotton: control 3.7; for root length of cotton: control 9.6
# Procedure: (§2) Seed was sieved with a screen of hole size appropriate to remove broken seeds and small trash. Cracked or otherwise damaged seeds were removed. The seed was well mixed, and 50 g samples were weighed into small plastic trays. Seed treatment slurries were made by adding measured amounts of the active ingredients to sufficient water to bring them up to a standard volume, typically 2 ml. A fungicide (Maxim XL; Syngenta Agricultural Products, Greensboro, N.C.), a polymeric binder (CF-Clear; Becker-Underwood, Ames, Iowa), and a colorant (Color Coat Red; Becker-Underwood, Ames, Iowa) were also included in the slurry at label rates. A small aliquot of this slurry was applied to the seed using the Hege 11 coater (Wintersteiger, Salt Lake City, Utah) with a six-inch bowl. The slurry was deposited drop-wise on the spinning disk atomizer using a syringe.
# (§3) Seeds were placed in germination pouches consisting of germination paper hydrated with sterile water that was an insert in a gas-permeable 16×14 cm plastic pouch (CYG Pouch; Mega International, St. Paul, Minn.). In these examples, in pouch solution evaluation, clothianidin and PESA sodium salt were added to the sterile water in the pouch. Alternatively, imidacloprid or dinotefuran and PESA sodium salt were added to the sterile water in the pouch. The pouches were arranged in a completely randomized block design in growth racks and placed in 19-liter polycarbonate food storage containers (Rubbermaid Commercial Products, Winchester, Va.). The sealed containers were held in an upright growth cabinet maintained at 25 C with a 12 hour light: 12 hour dark photoperiod. After 6 days, the containers were removed from the growth cabinet, and the lengths of the roots and shoot were measured.
# [6] = tested on: soybean; assay: Field study, seed treatment of soybean; type: in vivo; details: for average plant height of soybean: 66 days after planting, control 23.8
# Procedure: as §1, with “Soybean” for “Sorghum”, “50” for “200”
# [7] = tested on: rice; assay: Pouch study of rice, imidacloprid seed treatment with PESA salt solution in pouch; type: in vivo
# Procedure: as §2, §3
# Root lengths of the control and combination treatment of 200 grams imidacloprid/100 pounds of seed with 50 mg/liter PESA salt were similar.
# [8] = sodium salt of PESA 22 g/100 kg seed alone
# [9] = sodium salt of PESA 55 g/100 kg seed alone
# [10] = sodium salt of PESA 137.5 g/100 kg seed alone
# [11] = PESA salt 10 g/100 pounds of seed alone
# [12] = PESA salt 25 g/100 pounds of seed alone
compound,measurement,setting,value
O=C(O)CCC(=O)NCCc1ccccc1 [PESA salt],root dry weight of a sample of 10 sorghum plants,[1]; [8],183.5 grams
same,root dry weight of a sample of 10 sorghum plants,[1]; [9],146.5 grams
same,root dry weight of a sample of 10 sorghum plants,[1]; [10],141.6 grams
same,safening of sorghum,[1]; conclusion from Table 10,safened sorghum against clothianidin-induced root growth inhibition
same,vigor rating (1 = low and 5 = high) of canola plants,[2]; [8],3.8
same,vigor rating (1 = low and 5 = high) of canola plants,[2]; [9],4
same,vigor rating (1 = low and 5 = high) of canola plants,[2]; [10],4
same,safening of canola,[2]; conclusion from Table 11,safened canola against clothianidin-induced vigor reduction
same,"vigor rating of maize plants, Vigor (1-5)",[3]; PESA sodium salt 22 g/100 kg seed alone,3.8
same,"vigor rating of maize plants, Vigor (1-5)",[3]; PESA sodium salt 55 g/100 kg seed alone,3.5
same,"vigor rating of maize plants, Vigor (1-5)",[3]; PESA sodium salt 137.5 g/100 kg seed alone,3.4
same,safening of cotton,[4]; conclusion from Table 5,safened cotton against imidacloprid-induced root growth inhibition
same,shoot length of cotton,[4]; PESA salt 10 mg/liter alone,6.2 cm
same,root length of cotton,[4]; PESA salt 10 mg/liter alone,14.6 cm
same,shoot length of cotton,[4]; PESA salt 30 mg/liter alone,6.0 cm
same,root length of cotton,[4]; PESA salt 30 mg/liter alone,16.9 cm
same,shoot length of cotton,[4]; PESA salt 100 mg/liter alone,6.0 cm
same,root length of cotton,[4]; PESA salt 100 mg/liter alone,16.5 cm
same,shoot length of cotton,[4]; PESA salt 300 mg/liter alone,5.7 cm
same,root length of cotton,[4]; PESA salt 300 mg/liter alone,11.9 cm
same,effect on cotton shoot length,[5]; Table 2,increased cotton shoot length
same,safening of cotton,[5]; conclusion from Table 1,safened cotton against clothianidin-induced root growth inhibition
same,shoot length of cotton,[5]; [11],4.3 cm
same,root length of cotton,[5]; [11],8.8 cm
same,shoot length of cotton,[5]; [12],4.3 cm
same,root length of cotton,[5]; [12],10.6 cm
same,average plant height of soybean,[6]; [8],23.8 inches
same,average plant height of soybean,[6]; [9],23.5 inches
same,average plant height of soybean,[6]; [10],23.2 inches
same,safening of soybean,[6]; conclusion from Table 9,safened soybean against clothianidin-induced root growth inhibition
same,shoot length of rice,"[7]; PESA salt 50 mg/liter in pouch alone, control 3.3",3.6 cm
same,root length of rice,"[7]; PESA salt 50 mg/liter in pouch alone, control 10.7",12.0 cm
same,safening of rice,[7]; conclusion from Table 7,"safened, rice against imidacloprid-induced root growth inhibition"
